36 molecules from ChEMBL document CHEMBL1126122, “Non-prostanoid thromboxane A2 receptor antagonists with a dibenzoxepin ring system. 2” (J Med Chem, 1992) can be followed below.

Test system in one test: not listed separately
As to the kind of experiment: Binding affinity at Thromboxane A2/ Prostaglandin H2 receptor by measuring its ability to displace [3H]U-46619 from guinea pig platelets at a compound concentration of 0.1 uM. Particulars: Cavia porcellus.
The term inhibition denotes the change of the read-out against control, counted positive when it falls. Turning to `CSc1nc2ccccc2n1C/C=C1\c2ccccc2COc2ccc(C(=O)O)cc21`, the inhibition came out at 11%.

Test system in another test: not listed separately
Briefly: Binding affinity at TXA2/PGH2 receptor by displacement of [3H]U-46619 from human platelets.
Conditions: not given
One may read the Ki as the equilibrium dissociation constant of an inhibitor or competing ligand from its target. `Cc1cc(C)c2ncn(C/C=C3\c4ccccc4COc4ccc(C(=O)O)cc43)c2c1` gave a Ki of 7.6 nM.
On the same count and under the same terms, with `Cc1cccc2ncn(C/C=C3\c4ccccc4COc4ccc(C(=O)O)cc43)c12` the figure was 8 nM.
Still for that read-out and setting: with `Cc1ccc2c(ncn2C/C=C2\c3ccccc3COc3ccc(C(=O)O)cc32)c1C` the figure was 46 nM.
Still for that read-out and setting: with `O=C(O)c1ccc2c(c1)/C(=C/Cn1cnc3ccc(Cl)cc31)c1ccccc1CO2` the figure was 19 nM; with `Cc1ccc2ncn(C/C=C3\c4ccccc4COc4ccc(C(=O)O)cc43)c2c1`, 12 nM; with `Cc1cccc2c1ncn2C/C=C1\c2ccccc2COc2ccc(C(=O)O)cc21`, 38 nM.
As to `COc1ccc2ncn(C/C=C3\c4ccccc4COc4ccc(C(=O)O)cc43)c2c1`, the Ki was 7.4 nM.
Same read-out and setting: with `Cc1ccc2c(c1)ncn2C/C=C1\c2ccccc2COc2ccc(C(=O)O)cc21` the figure was 110 nM; with `O=C(O)c1ccc2c(c1)/C(=C/Cn1cnc3cc(F)ccc31)c1ccccc1CO2`, 15 nM; with `O=C(O)c1ccc2c(c1)/C(=C/Cn1cnc3cc(Cl)ccc31)c1ccccc1CO2`, 11 nM.
Still for that read-out and setting: with `COc1cc(OC)c2ncn(C/C=C3\c4ccccc4COc4ccc(C(=O)O)cc43)c2c1` the figure was 9.1 nM.
Same read-out and setting: next, `COc1cc(OC)c2c(c1)ncn2C/C=C1\c2ccccc2COc2ccc(C(=O)O)cc21`: 6.7 nM; `O=C(O)c1ccc2c(c1)/C(=C/Cn1cnc3cc(C(F)(F)F)ccc31)c1ccccc1CO2`: 85 nM; `COc1cc2ncn(C/C=C3\c4ccccc4COc4ccc(C(=O)O)cc43)c2cc1OC`: 2.2 nM.
The molecule `Cc1cc2ncn(C/C=C3\c4ccccc4COc4ccc(C(=O)O)cc43)c2cc1C` displayed a Ki of 1.2 nM.
Still for that read-out and setting: with `O=C(O)c1ccc2c(c1)/C(=C/Cn1cnc3cc4c(cc31)OCO4)c1ccccc1CO2` the figure was 3.8 nM.
The same measure, in the same setting: with `COc1ccc2c(c1)ncn2C/C=C1\c2ccccc2COc2ccc(C(=O)O)cc21` the figure was 17 nM; with `O=C(O)c1ccc2c(c1)/C(=C/Cn1cnc3cc([N+](=O)[O-])ccc31)c1ccccc1CO2`, 9.2 nM; with `O=C(O)c1ccc2c(c1)/C(=C/Cn1cnc3ccc(C(=O)NCc4ccccc4)cc31)c1ccccc1CO2`, 14 nM.
Still for that read-out and setting: with `O=C(O)c1ccc2c(c1)/C(=C/Cn1cnc3ccc([N+](=O)[O-])cc31)c1ccccc1CO2` the figure was 9.1 nM; with `O=C(O)c1ccc2c(c1)/C(=C/Cn1cnc3cc(C(=O)NCc4ccccc4)ccc31)c1ccccc1CO2`, 7.4 nM.

Another test is filed under the species Cavia porcellus. Briefly: Inhibitory effect on the U-46619 induced platelet aggregation was determined ex vivo in the guinea pig. The class given is functional.
Conditions: not given
For the molecule `O=C([O-])c1ccc2c(c1)/C(=C\Cn1cnc3ccccc31)c1ccccc1CO2.[Na+]`, the “Inhibition of U-46619-induced platelet aggregation” value stood at 0%.
`O=C(O)Cc1ccc(CCNS(=O)(=O)c2ccc(Cl)cc2)cc1` [DALTROBAN] yielded an Aggregation of 0%.
With `O=C(O)c1ccc2c(c1)/C(=C/CNS(=O)(=O)c1ccccc1)c1ccccc1CO2`, the “Inhibition of U-46619-induced platelet aggregation” value amounted to 25%.
As to `O=C(O)c1ccc2c(c1)C(SCCc1nc3ccccc3[nH]1)c1ccccc1CO2` (stereo not drawn), the “Inhibition of U-46619-induced platelet aggregation” value was determined as 66.3%.
The same measure, in the same setting: with `O=C(O)c1ccc2c(c1)/C(=C\CCNS(=O)(=O)c1ccccc1)c1ccccc1CO2` the figure was 59.3%; with `O=C(O)c1ccc2c(c1)C(SCCNS(=O)(=O)c1ccccc1)c1ccccc1CO2` (stereo not drawn), 11.8%.

Target in the next test: not listed separately
As to the kind of experiment: Binding affinity at TXA2/PGH2 receptor by measuring its ability to displace [3H]U-46619 from guinea pig platelets.
Conditions: not given
`O=C(O)c1ccc2c(c1)C(SCCNS(=O)(=O)c1ccccc1)c1ccccc1CO2` (stereo not drawn) gave an inhibitory constant (Ki) of 32 nM.

Staying with this test, now noted: Cavia porcellus; concentration not given here.
In the case of `O=C(O)c1ccc2c(c1)/C(=C/CCNS(=O)(=O)c1ccccc1)c1ccccc1CO2`, the inhibition was -6%.

Another test is filed under the species Cavia porcellus. Briefly: Compound was tested for its binding affinity at TXA2/PGH2 receptor by measuring its ability to displace [3H]U-46619 from guinea pig platelets at 0.1 uM.
Conditions: not given
Regarding `Cc1nc2ccccc2n1C/C=C1\c2ccccc2COc2ccc(C(=O)O)cc21`, the inhibition was determined as 4%.
Turning to `Cc1cc2ncn(C/C=C3\c4ccccc4COc4ccc(C(=O)N5CCOCC5)cc43)c2cc1C`, the inhibition was -4%.
The same measure, in the same setting: next, `Cc1cc2ncn(C/C=C3\c4ccccc4COc4ccc(C(=O)Nc5ccccc5C(=O)O)cc43)c2cc1C`: 6%.
Same read-out and setting: next, `O=C(O)c1ccc2c(c1)C(SCCn1cnc3ccccc31)c1ccccc1CO2` (stereo not drawn): 9%; `O=C(O)c1ccc2c(c1)/C(=C/Cn1nnc3ccccc31)c1ccccc1CO2`: 35%; `COC(=O)c1ccc2c(c1)/C(=C/Cn1cnc3cc(C)c(C)cc31)c1ccccc1CO2`: 31%.
As for `O=C(O)c1ccc2c(c1)/C(=C/Cn1cnc3cnccc31)c1ccccc1CO2`, the inhibition was -6%.
Same read-out and setting: with `O=C(O)c1ccc2c(c1)/C(=C\CCNS(=O)(=O)c1ccccc1)c1ccccc1CO2` the figure was 50%.
